Test results reported in paper PMC5218480 (PLoS ONE, 2017).

Tested on: MV-4-11 cells
Test: Gene expression microarray analysis (Affymetrix PrimeView) and GSEA
Assay type: cell-based, human
Set-up: RFU PODN (11730768_x_at) / Fold change /veh PODN (11730768_x_at) / RFU LINC00158 (11744669_a_at) / Fold change /veh LINC00158 (11744669_a_at) / RFU DUSP10 (11751237_a_at) / Fold change /veh DUSP10 (11751237_a_at) / RFU ID3 (11757404_x_at) / Fold change /veh ID3 (11757404_x_at) / RFU PLEKHG5 (11737974_s_at) / Fold change /veh PLEKHG5 (11737974_s_at) / RFU LRRC4B (11730491_at) / Fold change /veh LRRC4B (11730491_at) / RFU GIMAP4 (11747438_a_at) / Fold change /veh GIMAP4 (11747438_a_at) / RFU KRT8 (11758183_x_at) / Fold change /veh KRT8 (11758183_x_at) / RFU CNN1 (11734310_a_at) / Fold change /veh CNN1 (11734310_a_at) / RFU VPS37D (11726825_at) / Fold change /veh VPS37D (11726825_at) / RFU C10orf10 (11716522_x_at) / Fold change /veh C10orf10 (11716522_x_at) / RFU KIR2DL2 /// KIR2DL4 /// KIR2DL5A /// KIR2DL5B /// KIR2DS1 /// KIR2DS2 /// KIR2DS3 /// KIR2DS4 /// KIR3DL3 /// KIR3DL3 /// KIR3DS1 (11738374_at) / Fold change /veh KIR2DL2 /// KIR2DL4 /// KIR2DL5A /// KIR2DL5B /// KIR2DS1 /// KIR2DS2 /// KIR2DS3 /// KIR2DS4 /// KIR3DL3 /// KIR3DL3 /// KIR3DS1 (11738374_at) / RFU C1QL1 (11718748_at) / Fold change /veh C1QL1 (11718748_at) / RFU TMPRSS4 (11747572_a_at) / Fold change /veh TMPRSS4 (11747572_a_at) / RFU HAMP (11756126_x_at) / Fold change /veh HAMP (11756126_x_at) / RFU RNFT2 (11725882_a_at) / Fold change /veh RNFT2 (11725882_a_at) / RFU NR4A2 (11747474_a_at) / Fold change /veh NR4A2 (11747474_a_at) / RFU ABCC12 (11746883_a_at) / Fold change /veh ABCC12 (11746883_a_at) / RFU TMEM136 (11760407_x_at) / Fold change /veh TMEM136 (11760407_x_at) / RFU CLDN22 /// WWC2 (11732394_at) / Fold change /veh CLDN22 /// WWC2 (11732394_at) / RFU HLA-DPB1 (11760878_x_at) / Fold change /veh HLA-DPB1 (11760878_x_at) / RFU SPINT1 (11716480_a_at) / Fold change /veh SPINT1 (11716480_a_at) / RFU GAP43 (11754022_s_at) / Fold change /veh GAP43 (11754022_s_at) / RFU A4GNT (11735810_at) / Fold change /veh A4GNT (11735810_at) / RFU PRB3 (11715151_x_at) / Fold change /veh PRB3 (11715151_x_at) / RFU TUBB4B (11761932_at) / Fold change /veh TUBB4B (11761932_at) / RFU CAPN14 (11732068_a_at) / Fold change /veh CAPN14 (11732068_a_at) / RFU TMCC2 (11721928_a_at) / Fold change /veh TMCC2 (11721928_a_at) / RFU IRGQ (11745062_a_at) / Fold change /veh IRGQ (11745062_a_at) / RFU FAM174B (11720279_a_at) / Fold change /veh FAM174B (11720279_a_at) / RFU TMPRSS4 (11748680_a_at) / Fold change /veh TMPRSS4 (11748680_a_at) / RFU FAM212B (11763350_a_at) / Fold change /veh FAM212B (11763350_a_at) / RFU PLEKHG5 (11743358_a_at) / Fold change /veh PLEKHG5 (11743358_a_at) / RFU ZSCAN30 (11745921_a_at) / Fold change /veh ZSCAN30 (11745921_a_at) / RFU CMKLR1 (11741424_a_at) / Fold change /veh CMKLR1 (11741424_a_at) / RFU LOC101060620 /// MAPK8IP1 (11723275_at) / Fold change /veh LOC101060620 /// MAPK8IP1 (11723275_at) / RFU SPTSSB (11747773_x_at) / Fold change /veh SPTSSB (11747773_x_at) / RFU PRSS12 (11739890_at) / Fold change /veh PRSS12 (11739890_at) / RFU BIN1 (11741810_x_at) / Fold change /veh BIN1 (11741810_x_at) / RFU WNT11 (11732464_a_at) / Fold change /veh WNT11 (11732464_a_at) / RFU C10orf10 (11716521_a_at) / Fold change /veh C10orf10 (11716521_a_at) / RFU C5orf56 (11738089_at) / Fold change /veh C5orf56 (11738089_at) / RFU CYB561 (11721691_x_at) / Fold change /veh CYB561 (11721691_x_at) / RFU ANKRD19P (11752326_a_at) / Fold change /veh ANKRD19P (11752326_a_at) / RFU OR2T12 /// OR2T33 /// OR2T8 (11738714_s_at) / Fold change /veh OR2T12 /// OR2T33 /// OR2T8 (11738714_s_at) / RFU VCAN (11748164_a_at) / Fold change /veh VCAN (11748164_a_at) / RFU JSRP1 (11732532_at) / Fold change /veh JSRP1 (11732532_at) / RFU KRTAP10-11 (11738290_x_at) / Fold change /veh KRTAP10-11 (11738290_x_at) / RFU MYO3A (11730013_a_at) / Fold change /veh MYO3A (11730013_a_at) / RFU EBF3 (11725865_a_at) / Fold change /veh EBF3 (11725865_a_at) / RFU CAMK2N1 (11719241_x_at) / Fold change /veh CAMK2N1 (11719241_x_at) / RFU C5orf56 (11738088_a_at) / Fold change /veh C5orf56 (11738088_a_at) / RFU OLFML3 (11715873_a_at) / Fold change /veh OLFML3 (11715873_a_at) / RFU LOC100653217 /// NTM (11731650_a_at) / Fold change /veh LOC100653217 /// NTM (11731650_a_at) / RFU MAPK11 (11762145_a_at) / Fold change /veh MAPK11 (11762145_a_at) / RFU FIZ1 (11724087_x_at) / Fold change /veh FIZ1 (11724087_x_at) / RFU OASL (11726364_x_at) / Fold change /veh OASL (11726364_x_at) / RFU SOX15 (11748057_x_at) / Fold change /veh SOX15 (11748057_x_at) / RFU CD79A (11719716_a_at) / Fold change /veh CD79A (11719716_a_at) / RFU HIST1H1D (11736915_at) / Fold change /veh HIST1H1D (11736915_at) / RFU CASKIN2 (11723855_a_at) / Fold change /veh CASKIN2 (11723855_a_at) / RFU LOC730098 (11760151_x_at) / Fold change /veh LOC730098 (11760151_x_at) / RFU OR4N2 (11742367_at) / Fold change /veh OR4N2 (11742367_at) / RFU PRRT2 (11749266_a_at) / Fold change /veh PRRT2 (11749266_a_at) / RFU SNX32 (11753110_a_at) / Fold change /veh SNX32 (11753110_a_at) / RFU CDHR5 (11726645_a_at) / Fold change /veh CDHR5 (11726645_a_at) / RFU RCAN1 (11760418_a_at) / Fold change /veh RCAN1 (11760418_a_at) / RFU FAM167A (11723789_a_at) / Fold change /veh FAM167A (11723789_a_at) / RFU FAM26E (11764081_at) / Fold change /veh FAM26E (11764081_at) / RFU ISYNA1 (11749810_s_at) / Fold change /veh ISYNA1 (11749810_s_at) / RFU ACY1 (11761880_at) / Fold change /veh ACY1 (11761880_at) / RFU 11764098_at / Fold change /veh 11764098_at / RFU SAMD14 (11745864_x_at) / Fold change /veh SAMD14 (11745864_x_at) / RFU NPB (11741838_a_at) / Fold change /veh NPB (11741838_a_at) / RFU TMPRSS6 (11731388_a_at) / Fold change /veh TMPRSS6 (11731388_a_at) / RFU KRTAP10-2 (11738614_at) / Fold change /veh KRTAP10-2 (11738614_at) / RFU ARHGAP8 /// PRR5-ARHGAP8 (11727945_x_at) / Fold change /veh ARHGAP8 /// PRR5-ARHGAP8 (11727945_x_at) / RFU KRTAP5-7 /// NADSYN1 (11734609_at) / Fold change /veh KRTAP5-7 /// NADSYN1 (11734609_at) / RFU RASL12 (11751679_a_at) / Fold change /veh RASL12 (11751679_a_at) / RFU CDKN2B (11736163_a_at) / Fold change /veh CDKN2B (11736163_a_at) / RFU PRF1 (11729649_at) / Fold change /veh PRF1 (11729649_at) / RFU, ZNF638 /// ZNF638-IT1 / Fold change vs veh, ZNF638 /// ZNF638-IT1 / RFU, PANK3 / Fold change vs veh, PANK3 / RFU, SH3YL1 / Fold change vs veh, SH3YL1 / RFU, ZEB2 / Fold change vs veh, ZEB2 / RFU, NRIP1 / Fold change vs veh, NRIP1 / RFU, PTTG1IP / Fold change vs veh, PTTG1IP / RFU, CAPN2 / Fold change vs veh, CAPN2 / RFU, MED14 / Fold change vs veh, MED14 / RFU, SNORA58 / Fold change vs veh, SNORA58 / RFU, C1orf63 / Fold change vs veh, C1orf63 / RFU, LRRFIP1 / Fold change vs veh, LRRFIP1 / RFU, NDUFAF7 / Fold change vs veh, NDUFAF7 / RFU, SLC12A2 / Fold change vs veh, SLC12A2 / RFU, IBTK / Fold change vs veh, IBTK / RFU, ESF1 / Fold change vs veh, ESF1 / Fold change vs veh, TMEM50B / RFU, TAOK1 / Fold change vs veh, TAOK1 / RFU, ACBD3 / Fold change vs veh, ACBD3 / RFU, TMA16 / Fold change vs veh, TMA16 / RFU, RWDD3 / Fold change vs veh, RWDD3 / RFU, BCAT1 / Fold change vs veh, BCAT1 / RFU, EDEM3 / Fold change vs veh, EDEM3 / RFU, TMEM33 / Fold change vs veh, TMEM33 / RFU, WDR75 / Fold change vs veh, WDR75 / RFU, AHCTF1 / Fold change vs veh, AHCTF1 / RFU, TFRC / Fold change vs veh, TFRC / RFU, ZDHHC17 / Fold change vs veh, ZDHHC17 / RFU, NOM1 / Fold change vs veh, NOM1 / RFU, ARL8B / Fold change vs veh, ARL8B / RFU, ZBTB11 / Fold change vs veh, ZBTB11 / RFU, TAMM41 / Fold change vs veh, TAMM41 / RFU, KIAA1704 /// LOC100996395 / Fold change vs veh, KIAA1704 /// LOC100996395 / RFU, ING1 / Fold change vs veh, ING1 / RFU, TRMT61B / Fold change vs veh, TRMT61B / RFU, FUBP3 / Fold change vs veh, FUBP3 / RFU, TP53 / Fold change vs veh, TP53 / RFU, TNKS2 / Fold change vs veh, TNKS2 / RFU, ZFP14 / Fold change vs veh, ZFP14 / RFU, ACTR2 / Fold change vs veh, ACTR2 / RFU, PPP3R1 / Fold change vs veh, PPP3R1 / RFU, PIK3R1 / Fold change vs veh, PIK3R1 / RFU, HNRNPA1 / Fold change vs veh, HNRNPA1 / RFU, RNF170 / Fold change vs veh, RNF170 / RFU, ZNF28 / Fold change vs veh, ZNF28 / RFU, RNGTT / Fold change vs veh, RNGTT / RFU, OGT / Fold change vs veh, OGT / RFU, BRD1 / Fold change vs veh, BRD1 / RFU, MARS / Fold change vs veh, MARS / RFU, ZNF655 / Fold change vs veh, ZNF655 / RFU, FAHD1 / Fold change vs veh, FAHD1 / RFU, BDP1 / Fold change vs veh, BDP1 / RFU, LRRCC1 / Fold change vs veh, LRRCC1 / RFU, ARID1A / Fold change vs veh, ARID1A / RFU, ZNF146 / Fold change vs veh, ZNF146 / RFU, ZNF330 / Fold change vs veh, ZNF330 / RFU, GPN3 / Fold change vs veh, GPN3 / RFU, C9orf123 / Fold change vs veh, C9orf123 / RFU, N4BP2L2 / Fold change vs veh, N4BP2L2 / RFU, ARFIP1 / Fold change vs veh, ARFIP1 / RFU, FAM179B / Fold change vs veh, FAM179B / RFU, BCL10 / Fold change vs veh, BCL10 / RFU, UHRF1BP1L / Fold change vs veh, UHRF1BP1L / RFU, BET1 / Fold change vs veh, BET1 / RFU, CNOT2 / Fold change vs veh, CNOT2 / RFU, ZNF268 / Fold change vs veh, ZNF268 / Fold change vs veh, ZNF507 / RFU, DGCR2 / Fold change vs veh, DGCR2 / RFU, WDSUB1 / Fold change vs veh, WDSUB1 / Fold change vs veh, HSP90B1 /// MIR3652 / RFU, ADSS / Fold change vs veh, ADSS / RFU, GK / Fold change vs veh, GK / RFU, ZNF148 / Fold change vs veh, ZNF148 / RFU, TAF9 / Fold change vs veh, TAF9 / RFU, SLC1A5 / Fold change vs veh, SLC1A5 / RFU, SLMO2 / Fold change vs veh, SLMO2 / RFU, ABCC4 / Fold change vs veh, ABCC4 / RFU, LOC101060439 /// RAP1B / Fold change vs veh, LOC101060439 /// RAP1B / RFU, RFX7 / Fold change vs veh, RFX7 / RFU, GTPBP10 / Fold change vs veh, GTPBP10 / RFU, CNEP1R1 / Fold change vs veh, CNEP1R1 / RFU, BIVM-ERCC5 /// ERCC5 / Fold change vs veh, BIVM-ERCC5 /// ERCC5 / RFU, ILF3 / Fold change vs veh, ILF3 / RFU 11762660_at / Fold change /veh 11762660_at / RFU VCAN (11757783_s_at) / Fold change /veh VCAN (11757783_s_at) / RFU DDX43 (11728927_at) / Fold change /veh DDX43 (11728927_at) / RFU KRT8 (11758188_x_at) / Fold change /veh KRT8 (11758188_x_at) / RFU NKD1 (11759106_at) / Fold change /veh NKD1 (11759106_at) / RFU SRD5A1 (11742802_a_at) / Fold change /veh SRD5A1 (11742802_a_at) / RFU TPSAB1 /// TPSB2 (11721975_s_at) / Fold change /veh TPSAB1 /// TPSB2 (11721975_s_at) / RFU GSTM3 (11746129_a_at) / Fold change /veh GSTM3 (11746129_a_at) / RFU IL23R (11737362_x_at) / Fold change /veh IL23R (11737362_x_at) / RFU TMEM51 (11727254_a_at) / Fold change /veh TMEM51 (11727254_a_at) / RFU PIWIL2 (11732686_x_at) / Fold change /veh PIWIL2 (11732686_x_at) / RFU ORM1 (11744905_x_at) / Fold change /veh ORM1 (11744905_x_at) / RFU CCDC152 (11743942_at) / Fold change /veh CCDC152 (11743942_at) / RFU ECM1 (11717891_a_at) / Fold change /veh ECM1 (11717891_a_at) / RFU IL23R (11748794_a_at) / Fold change /veh IL23R (11748794_a_at) / RFU TNFAIP8L3 (11732012_x_at) / Fold change /veh TNFAIP8L3 (11732012_x_at) / RFU MBOAT4 (11741988_at) / Fold change /veh MBOAT4 (11741988_at) / RFU 11764193_at / Fold change /veh 11764193_at / RFU TMEM53 (11763286_at) / Fold change /veh TMEM53 (11763286_at) / RFU MAGEB2 (11727129_at) / Fold change /veh MAGEB2 (11727129_at) / RFU TMEM200A (11744735_a_at) / Fold change /veh TMEM200A (11744735_a_at) / RFU CCDC152 (11751479_a_at) / Fold change /veh CCDC152 (11751479_a_at) / RFU FAM211A (11726209_a_at) / Fold change /veh FAM211A (11726209_a_at) / RFU RGS16 (11746705_a_at) / Fold change /veh RGS16 (11746705_a_at) / RFU VCAN (11755009_s_at) / Fold change /veh VCAN (11755009_s_at) / RFU RHOB (11743442_s_at) / Fold change /veh RHOB (11743442_s_at) / RFU RGS16 (11720943_a_at) / Fold change /veh RGS16 (11720943_a_at) / RFU RGS16 (11720944_at) / Fold change /veh RGS16 (11720944_at) / RFU, VPS4B / Fold change vs veh, VPS4B / RFU, CREB1 / Fold change vs veh, CREB1 / RFU, DNAJC13 / Fold change vs veh, DNAJC13 / RFU, GNAQ / Fold change vs veh, GNAQ / RFU, CDK5R1 / Fold change vs veh, CDK5R1 / RFU, ZRANB3 / Fold change vs veh, ZRANB3 / RFU, CUL4A / Fold change vs veh, CUL4A / RFU, CCNY / Fold change vs veh, CCNY / RFU, UFL1 / Fold change vs veh, UFL1 / RFU, COG3 / Fold change vs veh, COG3 / RFU, DIAPH2 / Fold change vs veh, DIAPH2 / RFU, SKA2 / Fold change vs veh, SKA2 / RFU, AFF3 / Fold change vs veh, AFF3 / RFU, LMF1 / Fold change vs veh, LMF1 / RFU, IPO11 / Fold change vs veh, IPO11 / RFU, DFFB / Fold change vs veh, DFFB / RFU, FOXP1 / Fold change vs veh, FOXP1 / RFU, CARD8 / Fold change vs veh, CARD8 / RFU, STRN3 / Fold change vs veh, STRN3 / RFU, ADK / Fold change vs veh, ADK / RFU, RASSF2 / Fold change vs veh, RASSF2 / RFU, WIPF1 / Fold change vs veh, WIPF1 / RFU, LARP1B / Fold change vs veh, LARP1B / RFU, RASA1 / Fold change vs veh, RASA1 / RFU, RB1 / Fold change vs veh, RB1 / RFU, PPFIA1 / Fold change vs veh, PPFIA1 / RFU, MAT2A / Fold change vs veh, MAT2A / RFU, CCT5 / Fold change vs veh, CCT5 / RFU, WDR92 / Fold change vs veh, WDR92 / RFU, CUX1 / Fold change vs veh, CUX1 / RFU, TTC7A / Fold change vs veh, TTC7A / RFU, TMEM135 / Fold change vs veh, TMEM135 / RFU, DEPTOR / Fold change vs veh, DEPTOR / RFU, CPM / Fold change vs veh, CPM / RFU, DNAJB6 / Fold change vs veh, DNAJB6 / RFU, CACNA2D3 / Fold change vs veh, CACNA2D3 / RFU, DTX4 / Fold change vs veh, DTX4 / RFU, TFCP2 / Fold change vs veh, TFCP2 / RFU, GMCL1 /// GMCL1P1 / Fold change vs veh, GMCL1 /// GMCL1P1 / RFU, AEBP2 / Fold change vs veh, AEBP2 / RFU, SNHG1 /// SNORD22 /// SNORD25 /// SNORD26 /// SNORD27 /// SNORD28 /// SNORD29 /// SNORD31 / Fold change vs veh, SNHG1 /// SNORD22 /// SNORD25 /// SNORD26 /// SNORD27 /// SNORD28 /// SNORD29 /// SNORD31 / Fold change (Aza/veh), C12orf56 (ProbeSet 11735607_a_at) / Fold change (ACY-1035/veh), C12orf56 (ProbeSet 11735607_a_at) / Fold change (Aza/veh), FGFR1OP (ProbeSet 11751329_s_at) / Fold change (ACY-1035/veh), FGFR1OP (ProbeSet 11751329_s_at) / Fold change (Aza/veh), VPS36 (ProbeSet 11739960_a_at) / Fold change (ACY-1035/veh), VPS36 (ProbeSet 11739960_a_at) / RFU SYPL1 (11715823_x_at) / Fold change /veh SYPL1 (11715823_x_at) / RFU IGFBP7 (11715501_s_at) / Fold change /veh IGFBP7 (11715501_s_at) / RFU REEP3 (11722064_at) / Fold change /veh REEP3 (11722064_at) / RFU IGLL1 (11728026_x_at) / Fold change /veh IGLL1 (11728026_x_at): dose or concentration left out as unconfirmed
Settings: MV-4-11 cells, 48 hours

Structure (SMILES): Nc1ccc(-c2cccs2)cc1NC(=O)c1ccc2c(c1)cc(C1CC1)n2CCN1CCOCC1 [ACY-1035]
- RFU LOC101060620 /// MAPK8IP1 (11723275_at): 10.15 RFU
